The test system of this experiment is mice with chronic constriction injury. Kind of experiment: Chronic constriction injury (CCI) model, paw withdrawal thresholds to von Frey filaments. Particulars: CCI, systemic treatment. It counts as in vivo, mouse. The text has this: In deeply anaesthetized mice using isoflurane delivered in 100% 02 (Univentor 410 Anaesthesia unit; Univentor, Malta), four loose silk (5/0; Catgut GmbH Markneukirchen) ligatures were placed around the sciatic nerve at the level of the right mid-thigh as described previously (Wetzel et al., 2007).
Mice were allowed to habituate to the testing apparatus (acrylic chambers 10×10 cm in size, suspended above a wired mesh grid) one hour prior to behavioral testing. Only once the subject was at rest and not moving, calibrated von-Frey hair monofilaments (Aesthesio® set of 20 monofilaments, Ugo Basil) were applied to the plantar surface of the hind paw in order to deliver target forces from 0.008 grams to 4 grams increasing in an approximately logarithmic scale. A single stimulus indicated by a slight bending of the filament lasted for two seconds unless the mouse withdrew its paw. In order to measure mechanosensitivity the up-and-down method described by Chaplan^13 was adapted as follows: Testing began with a filament delivering a target force of 0.4 g, but filaments were applied three times. A positive response was noted if the subject withdrew the paw to all three filament applications, so that the successively smaller filament was presented next. […] Paw withdrawal thresholds were calculated as median of 23 to 30 determined turning points of the particular force stimuli applied to the subject.
Drug injections of OB-1 or DMSO alone were dissolved in Ringer's solution (in mM: 135 NaCl, 5 KCl, 5 HEPES, 1.8 CaCl2), 1 MgCl2) to make the OB-1 and vehicle solution. Injections were made 3 hours prior to behavioral testing, approximately 20 μl solution, 250 pmol per paw, was injected into the palm with a Hamilton syringe, gauge 33. During the injection procedure, the mouse was anaesthetized with isoflurane (1.5 to 2.5% in 02). The injection procedure lasted around 3 minutes after which the mouse was moved to the home cage for recovery before behavioral testing.
We next interrogated whether local application of OB-1 can ameliorate tactile-evoked pain behavior in neuropathic models. […] We decided to test this idea more directly by testing the effects of local OB-1 on the mechanical sensitivity of Stoml3^−/− mice with CCI. […] Off-target effects are an issue for any biologically active small molecule. We therefore tested the effects of 20 μM OB-1 in a commercially available in vitro pharmacology panel (www.cerep.fr) consisting of 79 receptors and ion channels.

As to `NCC1(CC(=O)O)CCCCC1` [gabapentin, reference compound], the tactile allodynia result is recorded as “reversal of tactile allodynia”.

The values above are taken from patent publication US11384071B2, “Inhibitors of mechanotransduction to treat pain and modulate touch perception” (Max-Delbrück-Centrum für Molekulare Medizin in der …, priority 2016, dated 2022).
